In ChEMBL document CHEMBL5096196, “Utilizing structure based drug design and metabolic soft spot identification to optimize the in vitro potency and in vivo pharmacokinetic properties leading to the discovery of novel reversible Bruton's tyrosine kinase inhibitors” (Bioorg Med Chem, 2021):

What was measured:
[1] = Apparent permeability of compound across Caco-2/TC-7 monolayers in human Caco-2 cells by LC/MSMS analysis; format: ADME, cell-based
in vitro [2] = details: rat, liver microsomes
in vitro [3] = details: human, liver microsomes
[4] = Metabolic stability in human liver microsomes; format: ADME, Microsome
[5] = Metabolic stability in rat liver microsomes; format: ADME, Microsome
physchem = details: octanol/water

Row | remaining at 0.5 h (in vitro [2]) | remaining at 0.5 h (in vitro [3]) | SMILES | other results
1 | – | – | O=C1[C@H](Nc2cc(F)cc(Cl)c2)CCCN1[C@@H]1CCCN(c2ncnc3[nH]ccc23)C1 | Papp [1]: 28 ×10⁻⁶ cm/s
2 | 85% | 13% | O=C(O)/C=N/[C@@H]1CCCN(c2ncnc3[nH]ncc23)C1 | –
3 | – | – | N[C@@H](C(=O)N[C@@H]1CCCN(c2ncnc3[nH]ncc23)C1)C1CC1 | Stability [4]: < 5%; Stability [5]: 7%
4 | 11% | 19% | O=C(CO)N[C@@H]1CCCN(c2ncnc3[nH]ncc23)C1 | –
5 | – | – | O=C(N[C@@H]1CCCN(c2ncnc3[nH]ncc23)C1)[C@H](O)C1CC1 | Stability [4]: < 5%; Stability [5]: 6%
6 | < 5% | 31% | O=C(N[C@@H]1CCCN(c2ncnc3[nH]ncc23)C1)C(O)Nc1cc(Cl)cc(Cl)c1 (some centres not stated) | –
7 | – | – | O=C1[C@H](Nc2cc(F)cc(Cl)c2)CCCN1[C@@H]1CCCN(c2ncnc3[nH]ncc23)C1 | logD (physchem): 4
